Reference: patent US6100267A, “Quinoline- and naphthalenecarboxamides, pharmaceutical compositions and methods of inhibiting calpain” (SmithKline Beecham Corporation, priority 1999, dated 2000)
Counter-ions that a name gives are not always drawn.

system: calpain; test: inhibition of calpain in vitro, synthetic fluorogenic substrates (Sasaki et al.); type: biochemical; conditions: percent decrease in rate of substrate hydrolysis
Experimental: The assays were performed using synthetic fluorogenic substrates. Inhibition of enzyme activity was calculated on the percent decease in the rate of substrate hydrolysis in the presence of inhibitor relative to the rate in its absence. IC50 s(nM) were calculated.

IC50 | Structure (SMILES)
0.065 µM | O=C[C@H](Cc1ccccc1)NC(=O)c1cc(-c2ccccc2)nc2ccccc12 [Example 1, (S)-N-(1-formyl-2-phenylethyl)-2-phenyl-4-quinolinecarboxamide]
0.066 µM | O=C[C@H](Cc1ccccc1)NC(=O)c1cc(-c2ccc(Cl)cc2)nc2ccccc12 [Example 2, (S)-2-(4-Chlorophenyl)-N-(1-formyl-2-phenylethyl)-4-quinolinecarboxamide]
0.02 µM | O=C[C@H](Cc1ccccc1)NC(=O)c1cc(-c2ccc(-c3ccccc3)cc2)nc2ccccc12 [Example 3, (S)-2-[1.1'-Biphenyl]-4-yl-N-(1-formyl-2-phenylethyl)-4-quinolinecarboxamide]
0.123 µM | O=C[C@H](Cc1ccccc1)NC(=O)c1cc(C23CC4CC(CC(C4)C2)C3)nc2ccccc12 [Example 4, (S)-2-(1-Adamantyl)-N-(1-formyl-2-phenylethyl)-4-quinolinecarboxamide]
0.032 µM | O=C[C@H](Cc1ccccc1)NC(=O)c1cc(-c2ccc(Oc3ccccc3)cc2)nc2ccccc12 [Example 5, (S)-N-(1-Formyl-2-phenylethyl)-2-(4-phenoxyphenyl)-4-quinolinecarboxamide]
0.019 µM | O=C[C@H](Cc1ccccc1)NC(=O)c1cc(-c2ccccc2-c2ccccc2)nc2ccccc12 [Example 6, (S)-2-[1,1'-Biphenyl]-2-yl-N-(1-formyl-2-phenylethyl)-4-quinolinecarboxamide]
0.038 µM | O=C[C@H](Cc1ccccc1)NC(=O)c1cc(N2CCN(c3ccccc3)CC2)nc2ccccc12 [Example 8, (S)-N-(1-Formyl-2-phenylethyl)-2-(4-phenyl-1-piperazinyl)-4-quinolinecarboxamide]
0.046 µM | O=C[C@H](Cc1ccccc1)NC(=O)c1cc(-c2ccc(-c3cccnc3)cc2)nc2ccccc12 [Example 9, (S)-N-(1-Formyl-2-phenylethyl)-2-[4-(3-pyridinyl)phenyl]-4-quinolinecarboxamide]
0.042 µM | O=C[C@H](CCCCNS(=O)(=O)c1ccccc1)NC(=O)c1cc(-c2ccccc2)nc2ccccc12 [Example 10, (S)-N-[1-Formyl-5-[(phenylsulfonyl)amino]pentyl]-2-phenyl-4-quinolinecarboxamide]
0.16 µM | O=C[C@H](CCCCNC(=O)OCc1ccncc1)NC(=O)c1cc(-c2ccccc2)nc2ccccc12 [Example 11, (S)-N-(1-Formyl-5-[(4-pyridylmethoxy)carbonylamino]pentyl]-2-phenyl-4-quinolinecarboxamide dihydrochloride salt]
0.012 µM | O=C[C@H](Cc1ccccc1)NC(=O)c1cc(C#Cc2ccccc2)nc2ccccc12 [Example 12, (S)-N-(1-formyl-2-phenylethyl)-2-(phenylethynyl)-4-quinolinecarboxamide]
0.077 µM | CCCCNC(=O)C(=O)[C@H](Cc1ccccc1)NC(=O)c1cc(C#Cc2ccccc2)nc2ccccc12 [Example 13, N-[3-(n-butylamino)-2,3-dioxo-1-(phenylmethyl)]-2-(phenylethynyl)-4-quinolinecarboxamide]
